Data taken from PubChem BioAssay AID248 (DTP/NCI, 2004).
Inconclusive results and toxic doses are left out. Cut-off read from the data, not from the text of the source: active = T/C of 150% or more; inactive = T/C below 125%.

Test system: L1210 leukemia ip in BDF1 mice, survival T/C
Assay: NCI In Vivo Anticancer Drug Screen. Data for tumor model L1210 Leukemia (intraperitoneal) in B6D2F1 (BDF1) mice
Settings: endpoint: mean survival time, higher = longer survival
Procedure, shortened: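 Each compound was tested against a transplantable tumor grown in mice. The endpoint was survival, with treated animals benchmarked against vehicle controls as a simple ratio.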

[1] = dose: 25.0 mg/kg/injection, schedule: Q01DX009 (ip), vehicle: Klucel (hydroxypropylcellulose) (HPC)
[2] = dose: 100.0 mg/kg/injection, schedule: Q01DX009 (ip), vehicle: Klucel (hydroxypropylcellulose) (HPC)
[3] = dose: 100.0 mg/kg/injection, schedule: Q04DX003 (ip), vehicle: Klucel (hydroxypropylcellulose) (HPC)
[4] = dose: 200.0 mg/kg/injection, schedule: Q04DX003 (ip), vehicle: Klucel (hydroxypropylcellulose) (HPC)

Measured: T/C

COc1ccccc1N1CCN(CCCC(=O)c2ccc(F)cc2)CC1
inactive: dose: 12.5 mg/kg/injection, schedule: Q01DX009 (ip), vehicle: Klucel (hydroxypropylcellulose) (HPC) 96 % of control | [1] 105 % of control | dose: 25.0 mg/kg/injection, schedule: Q04DX003 (ip), vehicle: Klucel (hydroxypropylcellulose) (HPC) 108 % of control | dose: 50.0 mg/kg/injection, schedule: Q01DX009 (ip), vehicle: Klucel (hydroxypropylcellulose) (HPC) 105 % of control | dose: 50.0 mg/kg/injection, schedule: Q04DX003 (ip), vehicle: Klucel (hydroxypropylcellulose) (HPC) 111 % of control | [2] 122 % of control | [3] 116 % of control | [4] 111 % of control

CC(C)C(C)(O)C#N (centres undefined)
inactive: dose: 5.0 mg/kg/injection, schedule: Q01DX001 (ip), vehicle: saline 92 % of control | dose: 10.0 mg/kg/injection, schedule: Q01DX001 (ip), vehicle: saline 97 % of control | dose: 20.0 mg/kg/injection, schedule: Q01DX001 (ip), vehicle: saline 100 % of control

O=c1[nH]c(=O)c2c3c(sc2[nH]1)CCCC3
inactive: dose: 100.0 mg/kg/injection, schedule: Q01DX001 (ip), vehicle: saline sonified 91 % of control | dose: 200.0 mg/kg/injection, schedule: Q01DX001 (ip), vehicle: saline sonified 91 % of control | dose: 400.0 mg/kg/injection, schedule: Q01DX001 (ip), vehicle: saline sonified 103 % of control

CN(C)c1ccc(/C=C/c2cnccn2)cc1
inactive: [1] 107 % of control | [3] 94 % of control | [4] 93 % of control

COc1cccc(NC(=O)c2cccc([N+](=O)[O-])c2)c1
inactive: dose: 100.0 mg/kg/injection, schedule: Q04DX002 (ip), vehicle: Klucel (hydroxypropylcellulose) (HPC) 94 % of control | dose: 200.0 mg/kg/injection, schedule: Q04DX002 (ip), vehicle: Klucel (hydroxypropylcellulose) (HPC) 98 % of control | dose: 400.0 mg/kg/injection, schedule: Q04DX002 (ip), vehicle: Klucel (hydroxypropylcellulose) (HPC) 91 % of control

CCCCCCCCCCCCNC(=O)Nc1cccc(C)c1C
inactive: [2] 89 % of control | [3] 98 % of control | dose: 200.0 mg/kg/injection, schedule: Q01DX009 (ip), vehicle: Klucel (hydroxypropylcellulose) (HPC) 100 % of control | [4] 95 % of control | dose: 400.0 mg/kg/injection, schedule: Q01DX009 (ip), vehicle: Klucel (hydroxypropylcellulose) (HPC) 89 % of control | dose: 400.0 mg/kg/injection, schedule: Q04DX003 (ip), vehicle: Klucel (hydroxypropylcellulose) (HPC) 95 % of control

CCCCCCCCCCCCCCCCCC(=O)N1C(=O)c2ccccc2C1=O
inactive: dose: 100.0 mg/kg/injection, schedule: Q01DX001 (ip), vehicle: other 87 % of control | dose: 200.0 mg/kg/injection, schedule: Q01DX001 (ip), vehicle: other 88 % of control | dose: 400.0 mg/kg/injection, schedule: Q01DX001 (ip), vehicle: other 92 % of control
